From paper PMC3514016 (The international journal of biochemistry & cell biology, 2009)
Where a SMILES comes first, the peptide text is derived from it. The star is where a group is joined. AMC = Cc1cc(=O)oc2cc(N*)ccc12; Cbz = O=C(OCc1ccccc1)*

Molecular target: Human CatB (human wild-type cathepsin B) (Homo sapiens, UniProt P07858, S194A)
Settings: read-out: Human CatB / Km; 37 °C; pH not stated for the Km assay

Km [µM] | SMILES
100 | Cc1cc(=O)oc2cc(NC(=O)[C@H](CCCNC(=N)N)NC(=O)[C@H](CCCNC(=N)N)NC(=O)OCc3ccccc3)ccc12 [Z-Arg-Arg-AMC] (Cbz-Arg-Arg-{AMC})
47 | Cc1cc(=O)oc2cc(NC(=O)[C@H](CCCNC(=N)N)NC(=O)[C@H](Cc3ccccc3)NC(=O)OCc3ccccc3)ccc12 [Z-Phe-Arg-AMC] (Cbz-Phe-Arg-{AMC})
